Assays:
Assay type in all cases: in vivo
[1] = test system: Maize (Zea mays); assay: Soil incorporation (attaclay/sand dust), growth regulatory or herbicidal effects, maize; details: 504 h, soil incorporation 26 ppm, 21 days, 0=no effect, 100=complete kill, read-out: growth regulatory or herbicidal effect score
Procedure, shortened: (§1)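 Dust-formulated compound incorporated in potting compost, 26 or 130 ppm w/v; seeds sown, watered, 21 d at 22° C, 65-85% RH, 14 h/day 13,000 lux. Visual growth-regulatory/herbicidal score 0 (no effect) to 100 (complete kill) vs untreated.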

[2] = test system: Sugarbeet (Beta vulgaris); assay: Post-emergence foliar spray, herbicidal/growth regulant response, sugarbeet; details: 168 h, foliar spray 11.2 kg/ha, 7 days, 0=no effect, 100=complete kill, read-out: herbicidal or growth regulant response index
Procedure, shortened: (§2)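 Foliar spray, 14-day-old seedlings; 11.2 kg/ha in 450 L/ha, 1:1 aq. acetone. Controlled room 22° C., 65-85% RH, 14 h light (13,000 lux). Visual score vs untreated control at 7 d, 0–100 (100 = complete kill).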

[3] = test system: Peas (Pisum sativum); assay: Soil incorporation (attaclay/sand dust), growth regulatory or herbicidal effects, peas; details: Lathyrus oleraceus, 504 h, soil incorporation 26 ppm, 21 days, 0=no effect, 100=complete kill, read-out: growth regulatory or herbicidal effect score
Procedure, shortened: as §1

[4] = test system: Peas (Pisum sativum); assay: Post-emergence foliar spray, herbicidal/growth regulant response, peas; details: Lathyrus oleraceus, 168 h, foliar spray 11.2 kg/ha, 7 days, 0=no effect, 100=complete kill, read-out: herbicidal or growth regulant response index
Procedure, shortened: as §2

[5] = test system: Oats (Avena sativa); assay: Soil incorporation (attaclay/sand dust), growth regulatory or herbicidal effects, oats; details: 504 h, soil incorporation 26 ppm, 21 days, 0=no effect, 100=complete kill, read-out: growth regulatory or herbicidal effect score
Procedure, shortened: as §1

[6] = test system: Mustard (Sinapis alba); assay: Soil incorporation (attaclay/sand dust), growth regulatory or herbicidal effects, mustard; details: 504 h, soil incorporation 26 ppm, 21 days, 0=no effect, 100=complete kill, read-out: growth regulatory or herbicidal effect score
Procedure, shortened: as §1

[7] = test system: Oat (Avena sativa); assay: Post-emergence foliar spray, herbicidal/growth regulant response, oat; details: 168 h, foliar spray 11.2 kg/ha, 7 days, 0=no effect, 100=complete kill, read-out: herbicidal or growth regulant response index
Procedure, shortened: as §2

[8] = test system: Wheat (Triticum aestivum); assay: Pre-emergence soil surface spray, wheat; details: soil surface spray 2.8 kg/ha, 21 days, 0=no effect, 100=complete kill
Procedure, shortened: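 Compounds are applied to the compost surface right after sowing, at 2.8 kg active ingredient per hectare. After 21 days in a controlled environment room at 22° C., any difference from untreated plants is rated visually from 0 (no effect) to 100 (complete kill).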

CCCS(=O)(=O)N(c1c(C)cccc1C)C(C)C(=O)OCC (centres unmarked) [Example 24, N-(1-[ethoxycarbonyl]ethyl)-2',6'-dimethyl-1-propanesulphonanilide]
plant injury at 26 µg/mL [1]: 60% | plant injury at 11200 g/ha [2]: 90% | pest or weed control at 26 µg/mL [3]: 0% | pest or weed control at 11200 g/ha [4]: 20% | plant injury at 26 µg/mL [5]: 60% | pest or weed control at 26 µg/mL [6]: 100% | plant injury at 11200 g/ha [7]: 30% | growth regulatory or herbicidal effect score [8]: 10
